From US10287253B2, “Substituted pyrimidines containing acidic groups as TLR7 modulators” (Apros Therapeutics, Inc., priority 2016, dated 2019)
pEC50: −log10 of the molar value.

Experiments:
[1] = Pharmacokinetics experiments: mouse liver-to-serum concentration (L:S); format: in vivo; conditions: BALB/c mice, 10 mg/kg p.o., 5 hour post dose
Procedure: BALB/c mice were dosed p.o. with 10 mg/kg compound formulated in 0.5% carboxy methycellulose+0.5% Tween-80 suspension. Mice were bled retro-orbitally at different time points post dose. Blood was processed into serum by centrifugation followed by protein precipitation, reverse-phase gradient elution and MRM detection via ESI+mass spectrometry to determine compound concentration. Animals were sacrificed after the final blood collection (5 hour), liver removed and flash frozen in liquid nitrogen for tissue PK analyses. The liver-to-serum concentration (L:S) at 5 hour post dose is one parameter for identifying compounds with potential enrichment in liver.
Mouse liver-to-serum concentration (L:S) table below provides results.

[2] = molecular target: human TLR7 (hTLR7) (Homo sapiens (Human), UniProt Q9NYK1); test: HEK TLR7 assay (HEK-Blue hTLR7 cells, NF-kB/AP-1 SEAP reporter); format: cell-based; conditions: HEK-Blue hTLR7 cells, 16 h incubation, SEAP read at 620-655 nm
Sequence of human TLR7 (hTLR7) (Q9NYK1 27-1049): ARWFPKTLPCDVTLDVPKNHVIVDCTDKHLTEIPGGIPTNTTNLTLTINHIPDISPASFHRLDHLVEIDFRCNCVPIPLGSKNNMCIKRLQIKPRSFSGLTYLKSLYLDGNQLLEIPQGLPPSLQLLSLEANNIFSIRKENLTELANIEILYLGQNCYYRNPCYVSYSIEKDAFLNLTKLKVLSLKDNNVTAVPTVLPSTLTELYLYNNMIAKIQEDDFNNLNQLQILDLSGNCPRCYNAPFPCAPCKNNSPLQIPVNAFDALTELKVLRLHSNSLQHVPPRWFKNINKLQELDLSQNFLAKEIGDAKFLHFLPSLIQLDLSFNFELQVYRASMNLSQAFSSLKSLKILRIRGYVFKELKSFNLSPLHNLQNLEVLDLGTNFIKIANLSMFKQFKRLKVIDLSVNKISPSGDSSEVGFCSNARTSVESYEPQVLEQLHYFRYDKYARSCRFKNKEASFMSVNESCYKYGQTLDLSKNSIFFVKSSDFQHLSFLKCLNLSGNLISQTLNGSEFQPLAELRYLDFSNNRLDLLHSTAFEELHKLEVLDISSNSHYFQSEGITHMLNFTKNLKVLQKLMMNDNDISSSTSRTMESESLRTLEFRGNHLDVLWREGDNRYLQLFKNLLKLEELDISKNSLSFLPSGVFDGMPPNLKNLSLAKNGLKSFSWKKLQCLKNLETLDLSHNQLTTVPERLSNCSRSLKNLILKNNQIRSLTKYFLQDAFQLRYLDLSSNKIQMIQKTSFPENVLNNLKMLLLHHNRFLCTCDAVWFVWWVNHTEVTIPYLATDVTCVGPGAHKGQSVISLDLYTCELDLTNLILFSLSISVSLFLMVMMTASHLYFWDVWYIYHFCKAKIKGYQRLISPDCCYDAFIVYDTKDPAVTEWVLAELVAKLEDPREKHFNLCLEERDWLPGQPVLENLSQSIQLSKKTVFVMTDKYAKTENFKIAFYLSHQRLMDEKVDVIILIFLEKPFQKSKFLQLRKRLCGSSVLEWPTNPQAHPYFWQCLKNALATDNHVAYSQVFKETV
From the text: HEK-Blue™ TLR7 cells were purchased from Invivogen (San Diego, Calif.). The following description was taken from the product information sheet.
“HEK-Blue™ hTLR7 cells are designed for studying the stimulation of human TLR7 (hTLR7) by monitoring the activation of NF-kB. HEK-Blue™ hTLR7 cells were obtained by co-transfection of the hTLR7 gene and an optimized secreted embryonic alkaline phosphatase (SEAP) reporter gene into HEK293 cells. The SEAP reporter gene is placed under the control of the IFN-b minimal promoter fused to five NF-kB and AP-1-binding sites. Stimulation with a TLR7 ligand activates NF-kB and AP-1 which induce the production of SEAP, which is detected by the HEK-Blue™ Detection cell culture medium.”
A typical assay protocol involved the following steps: • 1. Cells were cultured according to the product information sheet. • 2. 10 mM compound stock in DMSO were first diluted to 3 mM and then 3-fold serially diluted using DMSO to afford a 10-pt dilution. • 3. 3 μl of the diluted DMSO were added to 57 μl HEK-Blue™ Detection media for a further 20-fold dilution. • 4. 10 μl of the diluted compound in assay media were added into 40 μl cell culture (in HEK-Blue™ Detection media) in 384-well plate. Final cell concentration=8,000 cells per well. • 5. The plates were incubated at 37° C. in 5% CO2 for 16 h. SEAP was determined using a spectrophotometer at 620-655 nm.

Compound | L:S at 5 hr (liver-to-serum concentration) [1] | pEC50 [2]
CCCC[C@@H](CC(=O)O)Nc1nc(N)nc(CCC(=O)O)c1Cc1ccccc1OC [Compound 29, (S)-3-((2-amino-6-(2-carboxyethyl)-5-(2-methoxybenzyl)pyrimidin-4-yl)amino)heptanoic acid] | A (A = >100 represents high liver-enrichment) | 6.00 to 7.00
CCCC[C@@H](CC(=O)O)Nc1nc(N)nc(C)c1Cc1ccccc1OC [Compound 41, (S)-3-((2-amino-5-(2-methoxybenzyl)-6-methylpyrimidin-4-yl)amino)heptanoic acid] | B (B = 10-100 represents moderate liver-enrichment) | 6.00 to 7.00
CCCCNc1nc(N)nc(C)c1Cc1cc(C(C)(C)C(=O)O)ccc1OC [Compound 9, 2-(3-((2-amino-4-(butylamino)-6-methylpyrimidin-5-yl)methyl)-4-methoxyphenyl)-2-methylpropanoic acid] | A (A = >100 represents high liver-enrichment) | 6.00 to 7.00
CCCCNc1nc(N)nc(CCC(=O)O)c1Cc1ccccc1OC [Compound 15, 3-(2-amino-6-(butylamino)-5-(2-methoxybenzyl)pyrimidin-4-yl)propanoic acid] | B (B = 10-100 represents moderate liver-enrichment) | 6.00 to 7.00
CCCC[C@@H](CC(=O)O)Nc1nc(N)nc(C)c1Cc1cc(C(=O)NCCCP(=O)(O)O)ccc1OC [Compound 44, (S)-3-((2-amino-5-(2-methoxy-S-((3-phosphonopropyl)carbamoyl)benzyl)-6-methyl-pyrimidin-4-yl)amino)heptanoic acid] | B (B = 10-100 represents moderate liver-enrichment) | 6.00 to 7.00
